Measurements taken from patent US12622899B2 (PureTech LYT 100, Inc., priority 2018, dated 2026).

Key:
[1] = tested on: patients with Idiopathic Pulmonary Fibrosis (IPF); assay: IPF trial Part A: clinical laboratory parameters, liver; type: in vivo, human
[2] = tested on: older, healthy subjects; assay: Crossover study Part 2: safety and tolerability (TEAEs), fed and fasted; type: in vivo, human
Description: Over-encapsulation was utilized to maintain study blind. […] Approximately 50 older healthy female and male adult subjects (1:1 ratio) were randomized into 1 of 2 cohorts:Cohort 1 or Cohort 2, N=˜25 subjects per cohort. Subjects in each cohort were randomized to treatment sequence as follows: • Sequence A: Pirfenidone to LYT-100 • Sequence B: LYT-100 to pirfenidone

[3] = biological target: T1, CYP1A2 (Homo sapiens, UniProt P05177); assay: In vitro stability with recombinant human CYP1A2; type: in vitro ADME; details: recombinant human isozyme; read-out: t1/2 following incubation with CYP1A2 (converted)
T1 construct: host or cells: heterologous cell systems (not specified)
T1 sequence (P05177 1-516): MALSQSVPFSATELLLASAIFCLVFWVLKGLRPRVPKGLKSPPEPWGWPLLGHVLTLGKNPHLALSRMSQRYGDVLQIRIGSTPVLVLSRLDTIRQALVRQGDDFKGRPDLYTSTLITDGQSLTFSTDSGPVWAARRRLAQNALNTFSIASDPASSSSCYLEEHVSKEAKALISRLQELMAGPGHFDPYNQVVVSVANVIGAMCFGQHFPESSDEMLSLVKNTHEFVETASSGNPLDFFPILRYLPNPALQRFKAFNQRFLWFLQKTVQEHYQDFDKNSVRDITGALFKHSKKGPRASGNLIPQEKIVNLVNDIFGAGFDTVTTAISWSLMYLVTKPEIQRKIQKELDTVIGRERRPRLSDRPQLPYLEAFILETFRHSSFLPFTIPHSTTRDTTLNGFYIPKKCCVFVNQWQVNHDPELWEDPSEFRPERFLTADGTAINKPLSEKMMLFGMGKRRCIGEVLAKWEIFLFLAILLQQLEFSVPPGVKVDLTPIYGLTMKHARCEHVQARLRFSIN
Method: (§1) The half-life (t½) of each test article was determined.

[4] = clinical; details: both sexes, human, in vivo, 550 mg
Method: Over-encapsulation was utilized to maintain study blind. […] Approximately 50 older healthy female and male adult subjects (1:1 ratio) were randomized into 1 of 2 cohorts:Cohort 1 or Cohort 2, N=˜25 subjects per cohort.
There was a single AM fasting dose on Day 4 for both drugs. There was a 6-day wash-out period between drug cross-over.
Subjects were discharged on Day 4 following successful completion of all assessments and at the Investigator's discretion.
Subjects were then administered a single dose of their randomized treatment on the morning of Day 14 following an overnight fast of at least 8 hours. Subjects were discharged on Day 14 following successful completion of all assessments and at the Investigator's discretion.
An evening snack was served ≥3 hours following evening study medication administration. On Day 4 (Treatment Period 1) and Day 14 (Treatment Period 2), subjects were administered their assigned study drug once in the morning following an overnight fast of at least 8 hours (with approximately 240 mL of non-carbonated water). No additional fluids were allowed during the 1 hour pre- and post-dose.
Blood samples for PK were collected for Cohorts 1 and 2 at specified times during both periods, as follows: • Days 1 & 11:0 (pre-morning dose) • Days 2 & 12: no sampling. • Days 3 & 13:0 (pre-morning dose), and 1, 2, 3, 4, 6 (pre-mid-day dose), 7, 8, 9, 10, 12 (pre-evening dose), 13, 14, 15, 16, and 17 hours post-morning dose • Days 4 & 14:0 (pre-morning dose), and 1, 2, 3, 4, 6 (post-dose),

[5] = biological target: T2, CYP2D6 (Homo sapiens, UniProt P10635); assay: In vitro stability with recombinant human CYP2D6; type: in vitro ADME; details: recombinant human isozyme; read-out: t1/2 following incubation with CYP2D6 (converted)
T2 construct: host or cells: heterologous cell systems (not specified)
Method: as §1

[6] = tested on: patients with Idiopathic Pulmonary Fibrosis (IPF); assay: IPF trial Part A: safety and tolerability (TEAEs, AESI, dose modifications, discontinuations); type: in vivo
Method: The primary objective was to determine the dose(s) to carry into Phase 3. […] Patients were randomized to one of the four treatments in a 1:1:1:1 ratio and stratified based on prior exposure to nintedanib (<6 months) versus nintedanib-naïve patients. Patients who completed the Double-blind Treatment Period (Part A) were offered participation in the Long-term Extension (Part B). […] For patients who participated in Part B, the follow-up was conducted at the end of Part B. A graphical illustration of an embodiment of the trial design is provided as FIG. 24B.
Safety endpoints included: Adverse events, concomitant medications, clinical laboratory findings (chemistry, hematology, urinalysis), physical examinations, ECGs, and vital signs. These will be summarized descriptively, where appropriate.
Tolerability endpoints included: Frequency of dose modifications (reductions and interruptions), time to first dose modification, (reduction or interruption), duration of adverse events of special interest, time to treatment discontinuation due to an adverse event of special interest and patient reported assessment of IPF symptoms, side-effects, severity, change and satisfaction.
In this study, AEs are reported for all patients from the time of consent until the completion of the Follow-up visit. AEs reported prior to the first dose are denoted as pre-treatment. SAEs are reported for all patients (randomized or not) from the time of consent. AEs reported from the time of consent to confinement on Day 0 were recorded as pre-treatment AEs.
Treatment emergent adverse events (TEAEs) are defined as an AE that occurs following first dose of study medication and were evaluated from the first administration of study drug on Day 1 until the Follow-up visit. […]
This study evaluated in particular the tolerability based on prioritized gastrointestinal adverse events (GI AEs). […]

T2 sequence (P10635 whole entry): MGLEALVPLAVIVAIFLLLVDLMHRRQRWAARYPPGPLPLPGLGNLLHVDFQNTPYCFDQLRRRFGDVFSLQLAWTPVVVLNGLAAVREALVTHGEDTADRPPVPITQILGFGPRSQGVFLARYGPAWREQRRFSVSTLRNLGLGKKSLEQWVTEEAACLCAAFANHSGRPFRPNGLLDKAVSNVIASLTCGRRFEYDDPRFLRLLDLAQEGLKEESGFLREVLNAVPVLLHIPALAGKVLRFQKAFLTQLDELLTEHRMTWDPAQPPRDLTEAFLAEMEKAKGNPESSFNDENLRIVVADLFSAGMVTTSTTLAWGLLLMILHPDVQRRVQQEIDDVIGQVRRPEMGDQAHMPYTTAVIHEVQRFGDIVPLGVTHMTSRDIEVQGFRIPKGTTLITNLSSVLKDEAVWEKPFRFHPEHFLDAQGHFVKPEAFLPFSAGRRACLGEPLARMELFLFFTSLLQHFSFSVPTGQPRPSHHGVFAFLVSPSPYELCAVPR

For `[2H]C([2H])([2H])c1ccc(=O)n(-c2ccccc2)c1` [LYT-100, 5-(methyl-d3)-1-phenylpyridin-2-(1H)-one], the “liver enzyme elevations, drug-induced liver injury” value ([1]; IPF Part A) was “no instances of drug-induced liver injury or Hy's Law”, the “Alanine Aminotransferase (U/L) at Worst Post-Baseline, 3-5 ULN” value ([1]; TID Pooled (N = 129), N1 120) was 2 (1.7) n (%) and the “Alanine Aminotransferase (U/L) at Worst Post-Baseline, 5-8 ULN” value ([1]; TID Pooled (N = 129), N1 120) was 1 n (%). For the same molecule, the “Alanine Aminotransferase (U/L) at Worst Post-Baseline, >8 ULN” value ([1]; TID Pooled (N = 129), N1 120) was 2 n (%), the “Alanine Aminotransferase (U/L) at Worst Post-Baseline, Total (>3 ULN)” value ([1]; TID Pooled (N = 129), N1 120) was 5 (4.2) n (%) and the “Alanine Aminotransferase or Aspartate Aminotransferase (U/L) at Worst Post-Baseline, 3-5 ULN” value ([1]; TID Pooled (N = 129), N1 120) was 2 (1.7) n (%). The “Alanine Aminotransferase or Aspartate Aminotransferase (U/L) at Worst Post-Baseline, 5-8 ULN” value ([1]; TID Pooled (N = 129), N1 120) was 1 n (%), the “Alanine Aminotransferase or Aspartate Aminotransferase (U/L) at Worst Post-Baseline, >8 ULN” value ([1]; TID Pooled (N = 129), N1 120) was 2 n (%) and the “Alanine Aminotransferase or Aspartate Aminotransferase (U/L) at Worst Post-Baseline, Total (>3 ULN)” value ([1]; TID Pooled (N = 129), N1 120) was 5 (4.2) n (%). The “Aspartate Aminotransferase (U/L) at Worst Post-Baseline, 3-5 ULN” value ([1]; TID Pooled (N = 129), N1 120) was 2 (1.7) n (%), the “Aspartate Aminotransferase (U/L) at Worst Post-Baseline, 5-8 ULN” value ([1]; TID Pooled (N = 129), N1 120) was 0 n (%) and the “Aspartate Aminotransferase (U/L) at Worst Post-Baseline, >8 ULN” value ([1]; TID Pooled (N = 129), N1 120) was 2 n (%). The “Aspartate Aminotransferase (U/L) at Worst Post-Baseline, Total (>3 ULN)” value ([1]; TID Pooled (N = 129), N1 120) was 4 (3.3) n (%), the “deaths or serious AEs” value ([2]; Part 2) was “No deaths or serious AEs” and the “TEAEs leading to study discontinuation, subjects” value ([2]; in vivo) was “one”. It also gave a half-life [3] of 9.08 h, an AUC(0-t) ([4]; AUC0-24, parent) of 34100 ng·h/mL and a Cmax ([4]; Cmax, parent) of 9170 ng/mL. The half-life [5] was 2.72 h, the “Discontinued, Primary Reason: Death” value ([6]; 550 mg TID (N = 65)) was 0 n (%) and the “Discontinued, Primary Reason: Death” value ([6]; 825 mg TID (N = 64)) was 0 n (%).
